Where two headings read alike, the source gives them in different places. Non-standard residues stand in square brackets, D forms with d. Residues, ends and D or L forms follow the SMILES beside them. *: point of attachment. Sta = CC(C)C[C@H](N)[C@@H](O)CC(=O)O; Isovaleryl = CC(C)CC(=O)*

We go through six compounds from patent publication US9353089B2, “Compositions and methods for the treatment of malaria” (Saint Louis University, priority 2013, dated 2016).

One test deals with Plasmepsin V (PM-V) (Plasmodium falciparum (isolate 3D7), UniProt Q8I6Z5). As to conditions: known inhibitors, background; cited from earlier work.
Test [1] deals with recombinant human BACE1 (Homo sapiens, UniProt P56817). The test can be described thus: β-Secretase (BACE1) enzyme inhibition FRET assay. Format: biochemical. The method, then:
(§1) The enzymatic inhibition activity assays were determined using the fluorescence resonance energy transfer (FRET) assay. The assays were performed in a 384-well plate format. […] CatD and CatE were activated by incubation in assay buffer (0.1 M NaOAc, 0.2 M NaCl, pH 3.5) at room temperature for 30 min. Subsequently, the rhBACE-1 substrate (R&D Systems, catalog# ES004), the Cathepsin D and Cathepsin E substrate (R&D Systems, Catalog # ES001) were added accordingly to final concentration 20 μM to initiate the reaction. After 60 min incubation at room temperature, the time-resolved fluorescence at Ex/Em=360 nm/460 nm was measured on an EnVision multilabel plate reader (Perkin-Elmer). The analytical software, GraphPad Prism 5.0 (GraphPad Software, Inc., USA) was used to generate IC50 values via non-linear regression analysis, which are reported in Tables 8-13 below as BACE1 IC50 values.

For test [2], the target named is Plasmepsin-2 (PM-2; Plm II) (Plasmodium falciparum (isolate HB3), UniProt P46925). Put plainly: Plasmepsin-2 enzyme inhibition assay. It counts as biochemical. The method, boiled down: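 Enzymes activated in pH 4.5 citrate/DTT buffer, then assayed in 50 mM sodium acetate pH 4.7, 0.01% Tween-20. Compounds added before fluorogenic peptide substrate (final 20 µM); 60 min at room temperature, fluorescence Ex/Em 360/535 nm, IC50 by curve fit.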

The test system of test [3] is Plasmodium falciparum 3D7 (CQ-sensitive). The test can be described thus: In vitro antimalarial assay (malaria SYBR Green I-based fluorescence, MSF), 3D7. It counts as cell-based. The method, boiled down: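 Asynchronous P. falciparum 3D7 cultures (0.5% parasitemia, 2% hematocrit) were exposed to serially diluted compounds, in quadruplicate. Growth was then quantified by SYBR Green I fluorescence after adding lysis buffer containing 0.2 μL/mL dye.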

Test [4] deals with Plasmodium falciparum Dd2 (multi-drug resistant). The test can be described thus: In vitro antimalarial assay (malaria SYBR Green I-based fluorescence, MSF), Dd2. As to conditions: DD2, read-out: Dd2 IC50 (μM). It counts as cell-based. The method, then: In vitro antimalarial activity was determined by a malaria SYBR Green I-based fluorescence (MSF) method described previously by Smilkstein et al. (2004, which is incorporated herein by reference) with slight modification (Winter, et al., 2006, which is incorporated herein by reference). Stock solutions of each test drug were prepared in DMSO at a concentration of 20 mM. The drug solutions were serially diluted with culture medium and distributed to asynchronous parasite cultures on 96-well plates in quadruplicate in a total volume of 100 μL to achieve 0.5% parasitemia with a 2% hematocrit in a total volume of 100 pt. The plates were then incubated for 72 h at 37° C. After incubation, 100 μL of lysis buffer with 0.2 μL/mL SYBR Green I was added to each well. The plates were incubated at 37° C. for an hour in the dark and then placed in a 96-well fluorescence plate reader (Spectramax Gemini-EM; Molecular Diagnostics) with excitation and emission wavelengths at 497 nm and 520 nm, respectively, for measurement of fluorescence.
Antimalarial potency of compounds was determined by this technique for both Plasmodium falciparum 3D7 (CQ-sensitive) and Dd2 (multi-drug resistant) strains.

In test [5] the test system is Plasmodium chabaudi ASS and ASCQ strains. The test can be described thus: In vivo antimalarial efficacy 4-day suppressive test. Conditions: NIH mice, 4.5 mpk orally once daily for four days, Day 4 postinoculation.
Procedure: Briefly, NIH mice (n=8 per group) were inoculated i.p. with 2×10^7 parasitized (Plasmodium chabaudi ASS or ASCQ) red blood cells. […] Groups (n=6) including a vehicle control and chloroquine (CQ) as a reference drug were included. Parasitemia levels were determined on the day following the last treatment (Day 4).
The test system of test [6] is recombinant human BACE1. Put plainly: β-Secretase (BACE1) enzyme inhibition FRET assay. Conditions: for BACE1/PM2 Ratio: ratio of BACE1 IC50 to PM-2 IC50. Format: biochemical. On the procedure:
as §1

Test [7] addresses recombinant human Cathepsin E (Homo sapiens (Human), UniProt P14091). The test can be described thus: Cathepsin E enzyme inhibition FRET assay. It counts as biochemical. As to conditions: Table 8; read-out: CatE IC50. The method, then:
(§2) The enzymatic inhibition activity assays were determined using the fluorescence resonance energy transfer (FRET) assay. The assays were performed in a 384-well plate format. […] The concentration of Cathepsin D was 20 ng/μL, and 1 ng/μL of Cathepsin E was used. CatD and CatE were activated by incubation in assay buffer (0.1 M NaOAc, 0.2 M NaCl, pH 3.5) at room temperature for 30 min. Subsequently, the rhBACE-1 substrate (R&D Systems, catalog# ES004), the Cathepsin D and Cathepsin E substrate (R&D Systems, Catalog # ES001) were added accordingly to final concentration 20 μM to initiate the reaction. After 60 min incubation at room temperature, the time-resolved fluorescence at Ex/Em=360 nm/460 nm was measured on an EnVision multilabel plate reader (Perkin-Elmer). The analytical software, GraphPad Prism 5.0 (GraphPad Software, Inc., USA) was used to generate IC50 values via non-linear regression analysis, which are reported in Tables 8-13 below as BACE1 IC50 values.

Test [8] deals with Plasmepsin (PM-4; Plm IV) (Plasmodium falciparum (isolate 3D7), UniProt Q8IM16). Put plainly: Plasmepsin-4 enzyme inhibition assay. It counts as biochemical. As to conditions: Table 8. On the procedure: Plasmepsin-2 (PM-2; Plm II) and Plasmepsin (PM-4; Plm IV) expression and purification was performed following the published protocols (Istvan E S and Goldberg D E, 2005). The final purified protein was activated by diluting the protein to 0.3 mg/mL in activating buffer (0.1 M citrate pH 4.5, 0.1% Tween-20, 50 mM dithiothreitol) and incubated at room temperature for 40 min, then the activated enzyme was diluted in assay buffer (50 mM sodium acetate pH 4.7, 0.01% Tween-20). The enzymatic inhibition reaction was performed in 384 well plates with a total volume of 20 μl. 10 μl of diluted PM-2 or PM-4 enzyme was added to the 384-well plate except blank wells (blank wells add 10 μL of assay buffer) and 20 nL of serials of diluted 1000× compounds were added to the wells with 520 Echo® Liquid Handling System (Labcyte Inc.). 10 μL PM-2 peptide substrate (AnaSpec, Cat#, 62050) with assay buffer was then added to final concentration of 20 μM to start the reaction. After incubation the reaction at room temperature for 60 min, the fluorescence intensity at Ex/Em=360 nm/535 nm was measured using EnVision multilabel plate reader (Perkin-Elmer). The IC50 values were obtained using Graph Pad Prism 4 and are reported in Tables 8 and 9 below as PM-2 IC50 values.

For test [9], the target named is recombinant human Cathepsin D (Homo sapiens (Human), UniProt P07339). Put plainly: Cathepsin D enzyme inhibition FRET assay. Format: biochemical. The method, then: as §2
The mark [10] stands for this setting: 3D7, read-out: 3D7 IC50 (μM), Table 13.

recombinant human BACE1 (Homo sapiens, UniProt P56817), sequence (P56817 46-501 limits assumed): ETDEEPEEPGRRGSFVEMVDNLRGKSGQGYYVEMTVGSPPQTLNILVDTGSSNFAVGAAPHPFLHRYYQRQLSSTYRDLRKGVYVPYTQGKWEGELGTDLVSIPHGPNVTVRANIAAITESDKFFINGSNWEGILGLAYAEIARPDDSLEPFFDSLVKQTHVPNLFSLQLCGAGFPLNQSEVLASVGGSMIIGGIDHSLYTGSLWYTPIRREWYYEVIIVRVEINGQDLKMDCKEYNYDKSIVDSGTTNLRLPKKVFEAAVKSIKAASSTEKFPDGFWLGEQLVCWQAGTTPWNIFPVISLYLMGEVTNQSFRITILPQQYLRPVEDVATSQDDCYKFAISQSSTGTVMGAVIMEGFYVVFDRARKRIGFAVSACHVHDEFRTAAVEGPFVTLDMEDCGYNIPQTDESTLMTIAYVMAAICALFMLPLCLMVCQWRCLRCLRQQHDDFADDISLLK
Plasmepsin-2 (PM-2; Plm II), sequence (P46925 125-453 limits assumed): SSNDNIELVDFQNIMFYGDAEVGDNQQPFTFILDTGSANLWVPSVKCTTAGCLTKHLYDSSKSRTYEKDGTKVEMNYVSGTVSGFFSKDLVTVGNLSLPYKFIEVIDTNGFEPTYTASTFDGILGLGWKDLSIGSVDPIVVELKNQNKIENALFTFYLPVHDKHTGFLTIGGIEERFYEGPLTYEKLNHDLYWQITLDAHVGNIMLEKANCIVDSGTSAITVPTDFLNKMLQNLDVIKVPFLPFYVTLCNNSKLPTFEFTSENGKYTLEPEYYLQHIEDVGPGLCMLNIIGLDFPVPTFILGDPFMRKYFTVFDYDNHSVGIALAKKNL
recombinant human Cathepsin D, sequence (P07339 65-412): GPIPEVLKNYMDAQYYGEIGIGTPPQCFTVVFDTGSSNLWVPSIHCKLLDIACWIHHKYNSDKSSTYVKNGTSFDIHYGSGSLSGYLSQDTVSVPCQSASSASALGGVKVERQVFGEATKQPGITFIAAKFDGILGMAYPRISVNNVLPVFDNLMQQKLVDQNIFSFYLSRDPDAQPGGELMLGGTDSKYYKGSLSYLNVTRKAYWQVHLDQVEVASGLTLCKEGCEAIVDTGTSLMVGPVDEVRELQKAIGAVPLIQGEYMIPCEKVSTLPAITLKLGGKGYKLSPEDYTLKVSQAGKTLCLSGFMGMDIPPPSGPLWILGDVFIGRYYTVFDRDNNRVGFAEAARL
Plasmepsin (PM-4; Plm IV), sequence (Q8IM16 122-449 limits assumed): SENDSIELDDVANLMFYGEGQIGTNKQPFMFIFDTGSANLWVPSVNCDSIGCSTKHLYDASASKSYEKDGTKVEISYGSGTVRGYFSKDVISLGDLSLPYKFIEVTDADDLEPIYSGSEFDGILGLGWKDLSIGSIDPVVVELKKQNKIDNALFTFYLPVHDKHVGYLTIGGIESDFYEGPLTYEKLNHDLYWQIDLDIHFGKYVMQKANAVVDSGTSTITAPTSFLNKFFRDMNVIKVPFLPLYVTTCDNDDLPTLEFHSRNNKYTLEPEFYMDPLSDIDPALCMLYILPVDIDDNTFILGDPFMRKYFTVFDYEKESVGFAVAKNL
recombinant human Cathepsin E, sequence (P14091 54-396): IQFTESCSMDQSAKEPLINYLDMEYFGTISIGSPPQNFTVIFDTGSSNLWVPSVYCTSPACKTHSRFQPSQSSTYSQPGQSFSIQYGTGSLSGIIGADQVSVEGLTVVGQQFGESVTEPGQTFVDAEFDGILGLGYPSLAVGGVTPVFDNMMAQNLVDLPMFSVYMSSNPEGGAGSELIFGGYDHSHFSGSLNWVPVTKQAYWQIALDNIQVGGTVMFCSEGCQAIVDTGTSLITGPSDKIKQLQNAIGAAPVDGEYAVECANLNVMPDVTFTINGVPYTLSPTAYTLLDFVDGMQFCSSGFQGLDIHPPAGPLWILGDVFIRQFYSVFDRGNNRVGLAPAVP

Take `CC(C)CC(=O)N[C@H](C(=O)N[C@H](C(=O)N[C@@H](CC(C)C)[C@@H](O)CC(=O)N[C@@H](C)C(=O)N[C@@H](CC(C)C)[C@@H](O)CC(=O)O)C(C)C)C(C)C` [pepstatin A] (Isovaleryl-VV[Sta]A[Sta]-OH): the IC50 (as a rule, the midpoint of a concentration-inhibition curve) on Plasmepsin V (PM-V) was above 20 µM.

Take `COc1ccc(C2(c3ccc(OC)cc3)NC(=N)N(CC3CCCCC3)C2=O)cc1` [Example 221, 3-(cyclohexylmethyl)-2-imino-5,5-bis(4-methoxyphenyl)-imidazolidin-4-one]: the IC50 at recombinant human BACE1 [1] (Table 13, read-out: BACE1 IC50) was 6.01 µM; in [2] (Table 13, read-out: PM-2 IC50) it was 2.39 nM; in test [3] (setting [10]), 0.207 µM; in test [3] (3D7, read-out: Pf3D7 IC50 (μM), Table 10), 0.383 µM; in test [4] it was 0.367 µM.

Turning to `CCN(CC)CCCC(C)Nc1ccnc2cc(Cl)ccc12` (stereo not drawn) [CQ, chloroquine, reference compound], the “% Inhibition of parasitemia” value in test [5] is listed as 99.99%.

On to `N=C1NC(c2ccccc2)(c2cccc(-c3cccnc3)c2)C(=O)N1C1CCCCC1` (stereo not drawn) [Example 136, 3-cyclohexyl-2-imino-5-phenyl-5-[3-(pyridin-3-yl)-phenyl]imidazolidin-4-one], for which the IC50 on recombinant human BACE1 [1] (Table 8, read-out: BACE IC50) is 1.68 µM; on recombinant human BACE1 [1] (Table 12, read-out: BACE1 IC50) it was 18.1 µM; at recombinant human BACE1 [1] (Table 13, read-out: BACE1 IC50) it was 18.1 µM; in test [7], above 10 µM; in test [2] (Table 8, read-out: PM-II IC50) it was 13 nM; in test [2] (Table 12, read-out: PM-2 IC50), 13 nM. Moreover, the IC50 in [2] (Table 13, read-out: PM-2 IC50) is 13 nM; in [3] (3D7, read-out: 3D7 IC50 (μM), Table 12), 0.75 µM; in [3] (setting [10]), 0.75 µM; in test [3] (3D7, read-out: Pf 3D7 IC50 (μM), Table 11), 0.75 µM; in test [3] (3D7, read-out: Pf 3D7 IC50, Table 8), 0.75 µM; in test [8], 31 nM. Besides, the IC50 in [9] (Table 8, read-out: CatD IC50) is above 10 µM. The “selectivity for PM-II over BACE” value with recombinant human BACE1 [6] is above 1000 fold. The “BACE1/PM2 Ratio” value in the test on recombinant human BACE1 [6] was 1392. In addition, in test [9], the “selectivity for PM-II over CatD” value is on record as above 1000 fold.

Turning to `Cc1cccc(C)c1OCC(=O)N[C@@H](Cc1ccccc1)[C@@H](O)C[C@H](Cc1ccccc1)NC(=O)[C@H](C(C)C)N1CCCNC1=O` [lopinavir], at Plasmepsin V (PM-V), the IC50 is above 20 µM.

In the case of `COc1cccc(-c2cccc(C3(C4CC4)NC(=N)N(C4CCCCC4)C3=O)c2)c1` (stereo not drawn) [Example 328, 3-cyclohexyl-5-cyclopropyl-2-imino-5-[3-(3-methoxyphenyl)-phenyl]imidazolidin-4-one], the IC50 was around 7 µM at recombinant human BACE1 [1] (Table 12, read-out: BACE1 IC50); around 6.8 µM at recombinant human BACE1 [1] (Table 13, read-out: BACE1 IC50); 104 nM in [2] (Table 12, read-out: PM-2 IC50); 104 nM in [2] (Table 13, read-out: PM-2 IC50); 0.746 µM in test [3] (setting [10]). The “BACE1/PM2 Ratio” value with recombinant human BACE1 [6] is reported as 67.
